For the test, the system named is IL-1 alpha. Briefly: IL-1 alpha assay: ELISA of IL-1α secreted by fibroblast/keratinocyte co-cultures exposed to a surfactant irritant with or without mildness agent. The test is classed as cell-based, human. Particulars: hand dishwashing detergent; for Percent IL-1 α Reduction AVG: average of 1%, 0.1% and 0.01%. From the text: IL-1 alpha is one cytokine often released near the beginning of the inflammation cascade, which ultimately leads to a human biological response resulting in visible and/or perceptual signs of irritation. Accordingly, by reducing the initial response to an irritant, such as a surfactant, the ultimate damaging reaction can be reduced, prevented, and/or eliminated.
The procedure for conducting IL-1 alpha assays is as follows: Co-cultures of fibroblasts and keratinocytes, the primary cell types found in skin, are established using 100,000 fibroblasts and 200,000 keratinocytes per well. These types of cells are those found in the outer layers of the skin exposed to detergent during every day use. An irritant, for example the surfactant package used in a dish detergent (Example 1 below), is then applied to the coculture wells to initiate the production and secretion of pro-inflammatory cytokines by the cells. One such cytokine is human interleukin-1 alpha or IL-1α. In the body, this protein is a key mediator of the host response to infections and various inflammatory challenges. Once produced, IL-1α stimulates production of other pro-inflammatory cytokines and bioactive molecules. Together, these biological molecules send the message that something is wrong and the keratinocytes and fibroblasts need help. This is called the inflammatory response.
The amount of secreted IL-1α is directly related to the intensity of the inflammatory response. In vitro, the concentration of IL-1α secreted by the co-culture cells in response to the irritant can be measured via a precise laboratory technique known as an Enzyme Linked Immuno-Sorbent Assay or ELISA. Thus, to test botanical materials for mildness, a lessening of IL-1α secretion, the mildness agents were added with the chemical irritant. When a reduction in IL-1α expression was observed, the mildness agents were successful. Theoretically, there are several mechanisms by which this could have been achieved at the cellular level. Without wishing to be bound to a particular theory or in any way limit the scope of the appended claims or their equivalents, it is presently believed that these mechanisms may include one or more of the following: the mildness agent could block the transcription of the DNA to RNA, translation of the RNA to protein, and/or release of the IL-1α from the cells. […] The mildness agent may also have stopped the cascade after the irritant works on the cell. Whatever the mechanism, the net result is the same. There is less IL-1α released by the cells which correlates to inhibition of events in the inflammatory cascade and ultimately, less inflammation.
These were prepared using a serial dilution technique: 1.0 g botanical was mixed well with 99.0 g dish detergent to give the 1.0% formulation; next, 10.0 g of the 1.0% solution was mixed well with 90.0 g of the dish detergent to give the 0.1% formulation; finally, 10.0 g of the 0.1% solution was mixed well with 90.0 g of the dish detergent to give the 0.01% formulation.

[1] abbreviates: botanical concentration 0.01% by weight.
The mark [2] stands for this setting: botanical concentration 0.1% by weight.
[3] abbreviates: botanical concentration 1% by weight.

`O=C(O)c1ccccc1O.O[SiH2]O` [D.S.B.C., silanediol salicylate]: the “Percent IL-1 α Reduction AVG” value was found to be 12.42%. For the same compound, the “Percent IL-1 α Reduction” value under setting [1] is 7.46%. Moreover, the “Percent IL-1 α Reduction” value under setting [2] is 13.07%. Besides, under setting [3], the “Percent IL-1 α Reduction” value is on record as 16.74%.
On the same counts, the results for `N[C@@H](CCC(=O)O)C(=O)NCCc1c[nH]c2ccccc12` [GLISTIN, glutaurylamidoethyl indole] are 22.63%, 18.50%, 31.80% and 17.60%.

The values above are taken from patent US20070224155A1, “Cleansing compositions and methods of reducing skin irritation” (ACCESS BUSINESS GROUP INTERNATIONAL, LLC, priority 2006, published 2007).
